Tests used:
human DP2 receptor = target: T1, human DP2 receptor (Homo sapiens, UniProt Q9Y5Y4); experiment: DP2/CRTH2 binding assay ([3H]PGD2 radioligand); details: membranes of HEK293 cells expressing recombinant human DP2, 1 nM [3H]PGD2; read-out: hDP2
T1 construct: expressed in transfected cells
T1 sequence (Q9Y5Y4 1-395): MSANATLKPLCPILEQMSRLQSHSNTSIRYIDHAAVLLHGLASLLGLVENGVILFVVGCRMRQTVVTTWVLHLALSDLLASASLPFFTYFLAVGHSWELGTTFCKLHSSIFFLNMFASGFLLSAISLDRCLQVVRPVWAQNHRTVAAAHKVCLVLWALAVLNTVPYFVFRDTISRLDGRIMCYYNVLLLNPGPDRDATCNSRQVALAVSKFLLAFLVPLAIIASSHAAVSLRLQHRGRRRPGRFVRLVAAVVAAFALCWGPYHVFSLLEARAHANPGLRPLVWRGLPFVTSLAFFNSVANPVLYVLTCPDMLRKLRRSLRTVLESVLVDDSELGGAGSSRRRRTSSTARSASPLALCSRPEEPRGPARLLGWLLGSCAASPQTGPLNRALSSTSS
Protocol: The ability of a compound to bind to the human DP2 receptor is assessed via a radioligand binding assay using [^3H]PGD2. HEK293 cells stably expressing recombinant human DP2 are resuspended in 10 mM Hepes, 7.4 containing 1 mM DTT, lysed and centrifuged at 75,000×g to pellet the membranes. The membranes are resuspended in 10 mM Hepes, 7.4 containing 1 mM DTT and 10% glycerol to approximately 5 mg protein/ml. Membranes (2-10 μg protein/well) are incubated in 96-well plates with 1 nM [^3H]PGD2 and test compound in Assay Buffer (50 mM Hepes, 10 mM MnCl2, 1 mM EDTA, plus or minus 0.2% human serum albumin, pH 7.4) for 60 minutes at room temperature. The reactions are terminated by rapid filtration through Whatman GF/C glass fibre filter plates. The filter plates were pre-soaked in 0.33% polythylenimine for 30 minutes at room temperature then washed in Wash Buffer (50 mM Hepes, 0.5 M NaCl pH 7.4) prior to harvesting. After harvesting, the filter plates are washed 3 times with 1 ml cold Wash Buffer then dried. Scintillant is then added to the plates and the radioactivity retained on the filters is determined on a Packard TopCount (Perkin Elmer). Specific binding is determined as total radioactive binding minus non-specific binding in the presence of 10 μM PGD2. IC50s were determined using GraphPad prism analysis of drug titration curves.

human DP1 receptor = target: T2, human DP1 receptor (Homo sapiens, UniProt Q13258); experiment: DP1 binding assay ([3H]BWA868C radioligand); details: human platelet membranes, 2 nM [3H]BWA868C; read-out: hDP1
T2 construct: tissue Biological Specialty Corporation; host or cells: human platelets, membrane preparation
T2 sequence (Q13258 1-359): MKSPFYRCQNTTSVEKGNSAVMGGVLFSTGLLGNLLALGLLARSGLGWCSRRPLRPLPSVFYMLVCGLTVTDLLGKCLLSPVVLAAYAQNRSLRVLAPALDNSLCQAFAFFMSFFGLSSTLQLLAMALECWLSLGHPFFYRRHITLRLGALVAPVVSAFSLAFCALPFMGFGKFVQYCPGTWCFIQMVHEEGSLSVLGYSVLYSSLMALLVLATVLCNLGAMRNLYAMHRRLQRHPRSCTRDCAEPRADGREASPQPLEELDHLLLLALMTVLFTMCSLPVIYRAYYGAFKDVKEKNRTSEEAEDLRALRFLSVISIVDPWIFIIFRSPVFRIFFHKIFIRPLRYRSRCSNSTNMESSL
Protocol: The ability of a compound to bind to the human DP1 receptor was evaluated via a radioligand membrane binding assay using the DP1 selective synthetic ligand [^3H]BWA868C. Packed human platelets (Biological Specialty Corporation), were resuspended in 6 volumes of Hepes/HBSS buffer (10 mM Hepes, 1 mM DTT in Hanks Balanced Salt Solution (HBSS), lysed and centrifuged at 75,000×g to pellet the membranes. Membranes were resuspended in Hepes/HBSS buffer to approximately 12 mg protein/ml. Membranes (20 μg protein/well) are incubated in 96-well plates with 2 nM [^3H]BWA868C and test compound in Assay Buffer (50 mM Hepes, 10 mM MnCl2, 1 mM EDTA, plus or minus 0.2% human serum albumin, pH 7.4) for 60 minutes at room temperature. The reactions are terminated by rapid filtration through Whatman GF/C glass fibre filter plates. The filter plates were pre-soaked in 0.33% polethylenimine for 30 minutes at room temperature then washed in Wash Buffer (50 mM Hepes, 0.5 M NaCl pH 7.4) prior to harvesting. After harvesting, the filter plates are washed 3 times with 1 ml cold Wash Buffer then dried. Scintillant is then added to the plates and the radioactivity retained on the filters is determined on a Packard TopCount (Perkin Elmer). Specific binding is determined as total radioactive binding minus non-specific binding in the presence of 10 μM BW A868C. IC50s were determined using GraphPad prism analysis of drug titration curves.

SMILES	IC50 (human DP2 receptor) [µM]	IC50 (human DP1 receptor) [µM]
COc1ccc(CC(=O)O)cc1Oc1ccc(NC(=O)c2ccc(Cl)cc2)cc1CSCc1ccccc1 [Compound 18, {3-[2-Benzylsulfanylmethyl-4-(4-chloro-benzoylamino)-phenoxy]-4-methoxy-phenyl}-acetic acid]	< 0.3	< 0.3
COc1ccc(CC(=O)O)cc1Oc1ccc(NC(=O)c2ccc(Cl)cc2)cc1CSc1nnc(C)s1 [Compound 19, {3-[4-(4-Chloro-benzoylamino)-2-(5-methyl-[1,3,4]thiadiazol-2-ylsulfanylmethyl)-phenoxy]-4-methoxy-phenyl}-acetic acid]	< 0.3	> 1
CC(C)SCc1cc(NC(=O)C(C)(C)C)ccc1Oc1cc(Cl)cc(CC(=O)O)c1 [Compound 30, {3-Chloro-5-[4-(2,2-dimethyl-propionylamino)-2-isopropylsulfanylmethyl-phenoxy]-phenyl}-acetic acid]	< 0.3	> 1
CC(C)(C)C(=O)Nc1ccc(Oc2cc(CC(=O)O)cc(C(F)(F)F)c2)c(CSCC(F)(F)F)c1 [Compound 32, {3-[4-(2,2-Dimethyl-propionylamino)-2-(2,2,2-trifluoro-ethylsulfanylmethyl)-phenoxy]-5-trifluoromethyl-phenyl}-acetic acid]	< 0.3	> 1
COc1ccc(CC(=O)O)cc1Oc1ccc(N2CCNC2=O)cc1CSCC(F)(F)F [Compound 57, {4-Methoxy-3-[4-(2-oxo-imidazolidin-1-yl)-2-(2,2,2-trifluoro-ethylsulfanylmethyl)-phenoxy]-phenyl}-acetic acid]	0.3 to 1	> 1
COc1ccc(CC(=O)O)cc1Oc1ccc(NC(=O)c2ccccc2)cc1CSC(C)(C)C [Compound 58, [3-(4-benzoylamino-2-tert-butylsulfanylmethyl-phenoxy)-4-methoxy-phenyl]-acetic acid]	< 0.3	< 0.3
CC(C)(C)SCc1cc(NC(=O)C(C)(C)C)ccc1Oc1cc(CC(=O)O)ccc1Cl [Compound 59, {3-[2-tert-Butylsulfanylmethyl-4-(2,2-dimethyl-propionylamino)-phenoxy]-4-chloro-phenyl}-acetic acid]	< 0.3	< 0.3
CC(C)(C)SCc1cc(NC(=O)c2ccc(Cl)cc2)ccc1Oc1cc(CC(=O)O)ccc1Cl [Compound 60, {3-[2-tert-Butylsulfanylmethyl-4-(4-chloro-benzoylamino)-phenoxy]-4-chloro-phenyl}-acetic acid]	< 0.3	< 0.3
CC(C)C(=O)Nc1ccc(Oc2cc(CC(=O)O)ccc2Cl)c(CSC(C)(C)C)c1 [Compound 61, [3-(2-tert-Butylsulfanylmethyl-4-isobutyrylamino-phenoxy)-4-chloro-phenyl]-acetic acid]	< 0.3	< 0.3
COc1ccc(CC(=O)O)cc1Oc1ccc(NC(=O)c2cccc(F)c2)cc1CSC(C)(C)C [Compound 62, {3-[2-tert-Butylsulfanylmethyl-4-(3-fluoro-benzoylamino)-phenoxy]-4-methoxy-phenyl}-acetic acid]	< 0.3	< 0.3
COc1ccc(CC(=O)O)cc1Oc1ccc(NC(=O)c2ccc(F)cc2)cc1CSC(C)(C)C [Compound 63, {3-[2-tert-Butylsulfanylmethyl-4-(4-fluoro-benzoylamino)-phenoxy]-4-methoxy-phenyl}-acetic acid]	< 0.3	< 0.3
COc1ccc(CC(=O)O)cc1Oc1ccc(NC(=O)c2ccccc2F)cc1CSC(C)(C)C [Compound 64, {3-[2-tert-Butylsulfanylmethyl-4-(2-fluoro-benzoylamino)-phenoxy]-4-methoxy-phenyl}-acetic acid]	< 0.3	< 0.3
COc1ccc(CC(=O)O)cc1Oc1ccc(NC(=O)c2ccc(Cl)cc2Cl)cc1CSC(C)(C)C [Compound 65, {3-[2-tert-Butylsulfanylmethyl-4-(2,4-dichloro-benzoylamino)-phenoxy]-4-methoxy-phenyl}-acetic acid]	< 0.3	< 0.3
COc1ccc(CC(=O)O)cc1Oc1ccc(NC(=O)c2cc(Cl)cc(Cl)c2)cc1CSC(C)(C)C [Compound 66, {3-[2-tert-Butylsulfanylmethyl-4-(3,5-dichloro-benzoylamino)-phenoxy]-4-methoxy-phenyl}-acetic acid]	< 0.3	< 0.3
COc1ccc(CC(=O)O)cc1Oc1ccc(NC(=O)c2cc(F)cc(F)c2)cc1CSC(C)(C)C [Compound 67, {3-[2-tert-Butylsulfanylmethyl-4-(3,5-difluoro-benzoylamino)-phenoxy]-4-methoxy-phenyl}-acetic acid]	< 0.3	< 0.3
COc1ccc(CC(=O)O)cc1Oc1ccc(NC(=O)c2cccc(C(F)(F)F)c2)cc1CSCC(F)(F)F [Compound 68, {4-methoxy-3-[2-(2,2,2-trifluoro-ethylsulfanylmethyl)-4-(3-trifluoromethyl-benzoylamino)-phenoxy]-phenyl}-acetic acid]	< 0.3	< 0.3
COc1ccc(CC(=O)O)cc1Oc1ccc(NC(=O)c2ccc(C(F)(F)F)cc2)cc1CSCC(F)(F)F [Compound 69, {4-methoxy-3-[2-(2,2,2-trifluoro-ethylsulfanylmethyl)-4-(4-trifluoromethyl-benzoylamino)-phenoxy]-phenyl}-acetic acid]	< 0.3	< 0.3
COc1ccc(CC(=O)O)cc1Oc1ccc(NC(=O)c2cccnc2)cc1CSCC(F)(F)F [Compound 70, {4-methoxy-3-[4-[(pyridine-3-carbonyl)-amino]-2-(2,2,2-trifluoro-ethylsulfanylmethyl)-phenoxy]-phenyl}-acetic acid]	< 0.3	0.3 to 1
COc1ccc(CC(=O)O)cc1Oc1ccc(NC(=O)c2ccncc2)cc1CSCC(F)(F)F [Compound 71, {4-methoxy-3-[4-[(pyridine-4-carbonyl)-amino]-2-(2,2,2-trifluoro-ethylsulfanylmethyl)-phenoxy]-phenyl}-acetic acid]	< 0.3	0.3 to 1
COc1ccc(CC(=O)O)cc1Oc1ccc(NC(=O)C(C)(C)C)cc1C[S+]([O-])C(C)(C)C (centres unmarked) [Compound 73, {3-[4-(2,2-Dimethyl-propionylamino)-2-(2-methyl-propane-2-sulfinylmethyl)-phenoxy]-4-methoxy-phenyl}-acetic acid]	< 0.3	< 0.3
COc1ccc(CC(=O)O)cc1Oc1ccc(NC(=O)C(C)(C)C)cc1CS(=O)(=O)C(C)(C)C [Compound 74, {3-[4-(2,2-Dimethyl-propionylamino)-2-(2-methyl-propane-2-sulfonylmethyl)-phenoxy]-4-methoxy-phenyl}-acetic acid]	< 0.3	< 0.3
CC(C)(C)SCc1cc(NC(=O)C(C)(C)C)ccc1Oc1cc(CC(=O)O)ccc1O [Compound 75, {3-[2-tert-Butylsulfanylmethyl-4-(2,2-dimethyl-propionylamino)-phenoxy]-4-hydroxy-phenyl}-acetic acid]	< 0.3	< 0.3

Reference: patent publication US20110144160A1, “Antagonists of Prostaglandin D2 Receptors” (Amira Pharmaceuticals, Inc., priority 2008, published 2011)
